Reference: paper PMC8698759, “Gold(I) Complexes Bearing Alkylated 1,3,5-Triaza-7-phosphaadamantane Ligands as Thermoresponsive Anticancer Agents in Human Colon Cells” (Biomedicines, 2021)
Like-named read-outs stand apart in the source and are kept apart here.

How the values were obtained:
[1] = tested on: Caco-2/TC7 cells; test: MTT cytotoxicity / antiproliferative assay on Caco-2/TC7 cells; assay type: cell-based, human
Procedure: Human fibroblast cells were kindly provided by Dr. Julio Montoya (Unidad de Bioquímica, Facultad de Veterinaria, Universidad de Zaragoza, Spain). Caco-2 cells (passages 40–70) and fibroblasts (passages 10–30) were maintained in a humidified atmosphere of 5% CO2 at 37 °C. Cells were grown in Dulbecco’s Modified Eagles medium (DMEM) (Gibco Invitrogen, Paisley, UK) supplemented with 20% fetal bovine serum (FBS), 1% non-essential amino acids, 1% penicillin (1000 U/mL), 1% streptomycin (1000 μg/mL) and 1% amphotericin (250 U/mL). […] Caco-2 cells were sub-cultured on 25 cm^2 plastic flasks at a density of 1.2 × 10^4 cells/cm^2, while fibroblasts were sub-cultured on 75 cm^2 plastic flasks at a density of 1 × 10^4 cells/cm^2. Culture medium was replaced every 2 days.
(§1) Gold complex was diluted in dimethyl sulfoxide (DMSO) to a stock solution at 20 mM and then re-diluted to a working solution at 2.5 mM before diluting it in cell culture medium to treat cells at desired concentrations.
The influence of hyperthermia was studied by incubating cells at 40 °C for 1 h immediately after treating them with the gold complexes.
For cytotoxicity screening assays, Caco-2 cells were seeded in 96-well plates at a density of 4 × 10^3 cells/well. Culture medium was replaced with medium containing drug panel 24 h post-seeding and cells were incubated for 72 h. In fibroblasts, culture medium containing metal gold complexes was added 10 days post-seeding. Antiproliferative effect was measured with MTT assay as previously described by Mármol et al.. […] To determine the selectivity index (SI) the IC50 value in fibroblasts was divided by IC50 value in Caco-2, obtaining a ratio cancerous/normal cells toxicity.

[2] = Distribution coefficient (logD7.4), shake-flask n-octanol/buffered water; assay type: physicochemical; conditions: n-octanol/phosphate buffered saline pH 7.4, shake-flask
Procedure: The n-octanol-water coefficients of the phosphane derivatives were determined as previously reported using a shake-flask method. Briefly: Buffered-saline distilled water (100 mL, phosphate buffer [PO4^3−] = 10 mM, [NaCl] = 0.15 M, pH 7.4) and n-octanol (100 mL) were shaken together for 72 h to allow saturation of both phases. 1 mg of the complexes was dissolved in 5 mL of the aqueous phase and 5 mL of the organic phase were added, mixing for 10 min. The concentration of the complexes in the organic and aqueous phases were then determined using UV absorbance spectroscopy. LogD7.4 = log{[compound(organic phase)]/[compound(aqueous phase)]}.
The lipophilicity can be measured by the partition coefficient water/n-octanol, logD, by experimental procedures such as the shake flask method, which affords the distribution of the drug between an equal amount of n-octanol and water (or buffered aqueous solution).

[3] = tested on: Human fibroblast cells; test: MTT cytotoxicity assay on fibroblasts; assay type: cell-based; conditions: for fibroblasts viability when treated at the IC50 value in Caco-2: 3a 2.5 µM, 3b 5.1 µM, 2a 12.3 µM, 2b 10.5 µM; for IC50: MTT, mean ± SE
Procedure: Human Caco-2 cell line (TC7 clone) was kindly provided by Dr. Edith Brot-Laroche (Université Pierre et Marie Curie-Paris 6, UMR S 872, Les Cordeliers, France). Human fibroblast cells were kindly provided by Dr. Julio Montoya (Unidad de Bioquímica, Facultad de Veterinaria, Universidad de Zaragoza, Spain). Caco-2 cells (passages 40–70) and fibroblasts (passages 10–30) were maintained in a humidified atmosphere of 5% CO2 at 37 °C. Cells were grown in Dulbecco’s Modified Eagles medium (DMEM) (Gibco Invitrogen, Paisley, UK) supplemented with 20% fetal bovine serum (FBS), 1% non-essential amino acids, 1% penicillin (1000 U/mL), 1% streptomycin (1000 μg/mL) and 1% amphotericin (250 U/mL). The cells were passaged enzymatically with 0.25% trypsin-1 mM EDTA. Caco-2 cells were sub-cultured on 25 cm^2 plastic flasks at a density of 1.2 × 10^4 cells/cm^2, while fibroblasts were sub-cultured on 75 cm^2 plastic flasks at a density of 1 × 10^4 cells/cm^2. Culture medium was replaced every 2 days.
as §1
For cytotoxicity screening assays, Caco-2 cells were seeded in 96-well plates at a density of 4 × 10^3 cells/well. Culture medium was replaced with medium containing drug panel 24 h post-seeding and cells were incubated for 72 h. In fibroblasts, culture medium containing metal gold complexes was added 10 days post-seeding. Antiproliferative effect was measured with MTT assay as previously described by Mármol et al.. Absorbance at 540/620 nm was measured with SPECTROstar Nano (BMG Labtech). To determine the selectivity index (SI) the IC50 value in fibroblasts was divided by IC50 value in Caco-2, obtaining a ratio cancerous/normal cells toxicity.

[4] = molecular target: T1, Recombinant Human TrxR1 (Homo sapiens, UniProt Q16881); test: Thioredoxin reductase 1 (TrxR1) activity assay; assay type: biochemical; conditions: auranofin 25 µM; 3a and 3b at IC50 concentrations
T1 construct: purchased Sigma-Aldrich SRP6081
T1 sequence (Q16881 151-649 limits assumed): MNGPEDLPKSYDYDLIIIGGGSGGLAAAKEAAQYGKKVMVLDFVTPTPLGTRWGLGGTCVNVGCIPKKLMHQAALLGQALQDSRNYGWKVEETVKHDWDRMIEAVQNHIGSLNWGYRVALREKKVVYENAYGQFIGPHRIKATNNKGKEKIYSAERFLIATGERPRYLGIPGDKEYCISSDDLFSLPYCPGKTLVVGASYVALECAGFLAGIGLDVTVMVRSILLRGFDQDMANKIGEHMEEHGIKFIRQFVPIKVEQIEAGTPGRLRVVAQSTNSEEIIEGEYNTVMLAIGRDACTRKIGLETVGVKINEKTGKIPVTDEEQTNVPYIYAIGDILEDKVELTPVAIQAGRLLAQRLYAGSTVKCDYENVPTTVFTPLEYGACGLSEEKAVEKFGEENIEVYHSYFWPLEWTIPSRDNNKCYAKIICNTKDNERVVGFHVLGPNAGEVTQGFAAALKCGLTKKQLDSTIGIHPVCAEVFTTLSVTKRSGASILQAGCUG
Procedure: Recombinant Human TrxR1 (Sigma-Aldrich SRP6081, St. Louis, MO, USA) was incubated in a 96 well plate with different concentration of Au complex previously dissolved in 25 μL of PBS at pH 7.4. The cell solution was incubated in shake motion for 5 min at 37 °C. After incubation time, procedure in Thioredoxin Reductase Assay Kit (Sigma-Aldrich CS0170, St. Louis, MO, USA) was followed. Finally, reaction was started by adding 6 μL DNTB and absorbance at 405 nm was recorded every 30 s for 22 min as a measure of Thioredoxin Reductase Activity.

[5] = 72 h, MTT, 37 °C, mean ± SE, read-out: IC50 Caco-2/TC7 37 °C
[6] = read-out: IC50 Caco-2/TC7 40 °C, 72 h, MTT, 1 h at 40 °C immediately after treatment (hyperthermia), mean ± SE
[7] = Homo sapiens, Caco2/TC7, read-out: IC50 Caco-2/TC7 40 °C

Compound `FC(F)(F)C(F)(F)C(F)(F)C(F)(F)C(F)(F)C(F)(F)CC[N+]12CN3CN(C1)C[PH]([Au][Cl])(C3)C2.O=S(=O)([O-])C(F)(F)F` [Complex 1b, [AuCl(PTA-CH2CH2(CF2)5CF3)]TfO] has an IC50 [1, 5] of 5.98 ± 1.8 µM, an IC50 [1, 6] of 4.46 ± 0.79 µM and a logD7.4 [2] of 0.63.

In the case of `CCCCCCCC[N+]12CN3CN(C1)C[P+]([Au-2]([Cl])[P+]14CN5CN(C[N+](CCCCCCCC)(C5)C1)C4)(C3)C2.[I-].[I-]` [Complex 2a, [AuCl(PTA-CH2(CH2)6CH3)2]I2], the “fibroblasts viability when treated at the IC50 value in Caco-2” value [3] is reported as “nearly two-fold reduction in the viability of fibroblasts”, the “Selectivity Index (SI)” value ([3]; IC50 fibroblasts/IC50 Caco-2) is reported as 1.09 and the IC50 [3] is reported as 13.5 ± 0.97 µM. The IC50 [1, 5] was 12.3 ± 1.18 µM, the IC50 [1, 6] was 10.4 ± 0.51 µM and the logD7.4 [2] was −0.12.

For `FC(F)(F)C(F)(F)C(F)(F)C(F)(F)C(F)(F)C(F)(F)CC[N+]12CN3CN(C1)C[P+]([Au-2]([Cl])[P+]14CN5CN(C[N+](CCC(F)(F)C(F)(F)C(F)(F)C(F)(F)C(F)(F)C(F)(F)F)(C5)C1)C4)(C3)C2.O=S(=O)([O-])C(F)(F)F.O=S(=O)([O-])C(F)(F)F` [Complex 2b, [AuCl(PTA-CH2CH2(CF2)5CF3)2](TfO)2], the “fibroblasts viability when treated at the IC50 value in Caco-2” value [3] was “nearly two-fold reduction in the viability of fibroblasts”, the IC50 [3] was 11.6 ± 1.05 µM and the IC50 [1, 5] was 10.7 ± 0.6 µM. The IC50 [1, 6] was 9 ± 0.39 µM and the logD7.4 [2] was 0.82.

Compound `CCCCCCCC[N+]12CN3CN(CP(C3)C1)C2` [La, [PTA-CH2(CH2)6CH3]I] has an IC50 [1] of 49.32 ± 0.02 µM and an IC50 [1, 7] of 47.1 ± 0.92 µM.

With `FC(F)(F)C(F)(F)C(F)(F)C(F)(F)C(F)(F)C(F)(F)CC[N+]12CN3CN(CP(C3)C1)C2` [Lb, [PTA-CH2CH2(CF2)5CF3]TfO] the IC50 [1] was 27.2 ± 7.56 µM and the IC50 [1, 7] was 24 ± 6.6 µM.

With `CC(=O)OC[C@H]1O[C@@H]([S-])[C@H](OC(C)=O)[C@@H](OC(C)=O)[C@@H]1OC(C)=O.CCP(CC)CC.[Au+]` [auranofin, reference compound] the “TrxR1 activity related to control” value [4] was “Inhibitory effect”.
